In data set [1] the test system is human IR-A. Nature of the data set: Competitive receptor binding (SPA), IR-A. To be noted: for difference in affinity between IR-A and IR-B: IR-A vs IR-B, in words; for IC50: SPA, WGA PVT PEI beads, 2 µg membranes from CHO cells overexpressing IR-A, 100 pmol/L A14[^125I]-insulin, pH 7.8, 12 h, 23°C, means ± SEM, at least three times, read-out: IR-A affinity IC50; for IR-A binding, less active than human insulin: decrease relative to human insulin; for higher affinity for IR-A than IR-B: IR-A relative to IR-B. The method, then:
The binding of the different insulins to the human IR-A and IR-B was analyzed in a competitive binding assay using the scintillation proximity assay as previously described, [30]. […] Briefly, cells were grown to confluence and gently detached, transferred to a centrifugation tube followed by centrifugation for 10 minutes at 600×g at 4°C. The pellet was resuspended in ice-cold 2.25 STM buffer (2.25 mol/L sucrose, 5 mmol/L Tris-HCl pH 7.4, 5 mmol/L MgCl2, 1x Complete Protease Inhibitor) and disrupted using a hand-held Dounce homogenizer followed by sonication. This homogenate was transferred to a centrifugation tube, overlaid with 0.8 STM buffer (0.8 mol/L sucrose, 5 mmol/L Tris-HCl pH 7.4, 5 mmol/L MgCl2, 1x Complete Protease Inhibitor) and centrifuged for 90 minutes at 100 000×g at 4°C. The emerging pellicle at the interface was collected, transferred to a new tube and washed two times with PBS by centrifugation for 10 minutes at 1500×g. The final pellet was resuspended in a small volume of dilution buffer (50 mmol/L Tris-HCl pH 7.4, 5 mmol/L MgCl2, 1x Complete Protease Inhibitor) and homogenized with a Dounce homogenizer. These plasma membrane preparations were stored until usage at –80°C.
Binding experiments were conducted in 96-well microplates. Per well 2 µg of membranes were incubated with 0.25 mg wheat germ agglutinin polyvinyltoluene polyethylenimine SPA beads, 100 pmol/L A14[^125I]-insulin and various concentrations of unlabeled insulins in a binding buffer containing 0.05 mol/L Tris-HCl pH 7.8, 0.15 mol/L NaCl, 0.1% BSA, Complete Protease Inhibitor for 12 hours at room temperature (23°C). The radioactivity was measured at equilibrium in a microplate scintillation counter (Wallac Microbeta, Freiburg, Germany).
(§1) For each experiment, IC50 or EC50 values were obtained using the 4-parameter logistic model according to Ratkowsky and Reedy (1986). The adjustment was obtained by non-linear regression using the Levenberg-Marquardt algorithm in SAS v9.1.3 software via Biost@t-Speed V2.0-LTS internal application. If necessary, lower and upper asymptotes were set to 0 and 100, respectively.
(§2) The binding of a constant concentration of [^125I]insulin to plasma membranes from CHO cells overexpressing either IR-A or IR-B was measured in presence of increasing concentrations of unlabeled competing ligand after incubation at room temperature for 12 h. All data has been corrected for non-specific binding and are expressed as percentage of [^125I]insulin in absence of competing ligand. To analyze the insulin-stimulated activation and subsequent autophosphorylation of the insulin receptor CHO cells overexpressing the human IR-A (C) or IR-B (D) were stimulated for 15 min at 37°C with increasing concentrations of peptides, then the cells were fixed with 3.7% PFA and the amount of phosphotyrosines was analyzed via In-Cell Western. The data represent mean values ± SEM of at least 3 individual experiments measured in quadruplicate.

For data set [2] the following is noted: in vivo; cited from earlier work.
The subject of data set [3] is human IR-A. Kind of data set: IR-A autophosphorylation (In-Cell Western). As to conditions: for EC50: CHO cells overexpressing IR-A, 15 min at 37°C, In-Cell Western, means ± SEM, at least three times, read-out: IR-A auto-phosphorylation EC50. In kind it is cell-based.
From the text: (§3) CHO cells expressing either the IR-A or the IR-B isoform were used for IR autophosphorylation assays using In-Cell Western. For the analysis of IGF1R autophosphorylation the receptor was overexpressed in a mouse embryo fibroblast 3T3 Tet off cell line (BD Bioscience, Heidelberg, Germany) that was stably transfected with IGF1R tetracycline-regulatable expression plasmid resulting in the expression of ∼2.6×10^5 IGF1R per cell (as determined by FACS analysis, unpublished data). In order to determine the receptor tyrosine phosphorylation level, cells were seeded into 96-well plates and grown for 48 h. Cells were serum starved with serum-free medium αMEM (PAN Biotech GmbH, Aidenbach, Germany) for 3–4 h. […] After incubation the medium was discarded and the cells were fixed in 3.75% freshly prepared para-formaldehyde for 20 min. Cells were permeabilized with 0.1% Triton-X-100 in PBS for 20 min. Blocking was performed with Odyssey blocking buffer (LI-COR, Bad Homburg, Germany) overnight at 4°C. Anti-pTyr 4G10 (Millipore, Schwalbach, Germany) was incubated for 2 h at room temperature. After incubation of the primary antibody, cells were washed with PBS+0.1% Tween20. The secondary anti-mouse-IgG-800-CW antibody (Rockland, Gilbertsville, PA, USA) was incubated for 1 h. Results were normalized by the quantification of DNA with TO-PRO3 dye (Invitrogen, Karlsruhe, Germany). Data were obtained as relative units (RU) and are presented as fold over basal.
as §1, §2
Insulin receptor autophosphorylation was studied using CHO cells overexpressing either IR-A or IR-B. For detection an immunocytochemical microplate assay (In-Cell Western) based on two-colour fluorescence was applied.

For another data set, the system named is human IGF1R. Nature of the data set: IGF1R autophosphorylation (In-Cell Western). The format is cell-based. As to conditions: for EC50: MEF cells overexpressing IGF1R, 15 min at 37°C, In-Cell Western, means ± SEM, at least three times, read-out: IGF1R auto-phosphorylation EC50; for more potent in stimulation of IGF1R autophosphorylation: relative to human insulin.
From the text: as §3, §1
Figure 4 Activity of insulin analogs on the human IGF1R and mitogenic potential in Saos-2 cells. Analysis of binding to the human IGF1R using [^125I]IGF-1 as radioactive ligand (A) and analysis of the insulin-stimulated autophosphorylation of the human IGF1R overexpressed in MEF cells (B) were done as described in figure 2 and Materials and Methods. Data are given as means ± SEM. […] Confluent cells were starved for 4 h and then incubated for 19 h with increasing concentrations of IGF-1, insulin or analog in serum free medium. [^14C]thymidine was added for further 6 h and the radioactivity measured in a Wallac Micro Scintillation counter. Data are given as means ± SEM from octuplicate sample.

A further data set concerns insulin receptor. As to conditions: cited from earlier work. The text has this: Accordingly, a good correlation between the potency in insulin receptor binding, induction of autophosphorylation and stimulation of lipid synthesis has been observed for insulin analogs. […] Taken together ...
A further data set relates to MCF10. To be noted: benign cell line; ref [15]; cited from earlier work. An excerpt:
A correlation between IGF1R autophosphorylation and cell proliferation has been recently assumed by Shukla et al., who observed an enhanced growth of the malignant cell line MCF7 after insulin glargine stimulation. The authors have observed 10% and 50% increases of cellular proliferation at 0.31 and about 15 nmol/L. This effect seemed to be linked to activation of the IGF1R and the MAPK pathway, since siRNA knockdown of IGF1R decreased the response. Unfortunately, no dose-response curve of IGF1R autophosphorylation as well as no proliferation data from siRNA knockdown of IR have ...

The conditions of data set [4]: no reference given, cited from earlier work. An excerpt:
These alterations cause a shift in the isoelectric point from pH 5.4 to 6.7. Following subcutaneous administration as a clear solution of pH 4, insulin gla ...

Where [5] appears, read: relative to human insulin, ref [12].

Read-outs that look alike come from different tables or passages of the source.

As for “[Gly^A21,des-Thr^B30]insulin [Glargine M2]”, in the data set on human IR-A [1], the “difference in affinity between IR-A and IR-B” value is given as “no difference”; the IC50 was 0.93 ± 0.16 nM; the “IR-A binding, less active than human insulin” value is 40–50%. Further, the “plasma levels of metabolites” value in data set [2] is listed as “significant plasma levels”. Also, the EC50 in the data set with human IR-A [3] was 19.2 ± 1.6 nM. For the same substance, in the data set with human IGF1R (listed as M2), the EC50 was more than 400 nM. Further, the EC50 with human IGF1R worked out at 485 ± 43.6 nM.

Take [Gly^A21,Arg^B31]insulin [Glargine IM]: in the data set on human IR-A [1], the “difference in affinity between IR-A and IR-B” value is “no difference”; the concentration for half-maximal inhibition (IC50) worked out at 0.78 ± 0.03 nM; the “IR-A binding, less active than human insulin” value is 40–50%. Besides, in data set [2], the “plasma levels of metabolites” value was “minor species only”. In addition, in the data set with human IR-A [3], the EC50 was 23.1 ± 2.7 nM. In the data set with human IGF1R, the concentration for a half-maximal effect (EC50) turned out to be 179 ± 19.6 nM and the “more potent in stimulation of IGF1R autophosphorylation” value (“more potent in stimulation” for short) came out at 2 fold.

Take [Asp^B10]insulin: in the data set with human IR-A [1], the “higher affinity for IR-A than IR-B” value is on record as 3.5 fold and the IC50 worked out at 0.06 ± 0.01 nM. Further, in the data set with human IR-A [1] (relative to human insulin), the “IR-A binding, more potent relative to human insulin” value was 8.2 fold. The “affinity towards IR and IGF1R” value in the data set on insulin receptor (IR and IGF1R, relative to human insulin, ref [12]) was “higher affinity towards both IR and IGF1R”. The “occupancy time for the IR” value with insulin receptor (ref [12]) is “prolonged occupancy time”. Moreover, in the data set on insulin receptor (ref [50]), the occupancy of receptor entry is listed as “prolonged occupancy”. For the same substance, in the data set with human IR-A [3], the EC50 was determined as 5.1 ± 0.7 nM. Besides, in the data set with human IGF1R, the 50% effective concentration (EC50) turned out to be 72.7 ± 7.6 nM, the “less potent relative to IGF-1 (IGF1R autophosphorylation)” value is on record as approximately 25 times and the “more potent in stimulation” value is reported as “about 5 fold”.

For the substance “Human insulin: human insulin produced by recombinant DNA techniques or enzymatic semisynthesis”, in the data set with MCF10, the “difference between human insulin and insulin glargine” value is given as “did not show any difference”. For the same substance, the 50% effective concentration (EC50) in the data set on human IR-A [3] came to 11 ± 1.3 nM; with human IGF1R, 447 ± 38.7 nM. Besides, the isoelectric point in data set [4] is on record as 5.4 pH.

On to [Gly^A21]insulin [Glargine M1], for which, in the data set with human IR-A [1], the “difference in affinity between IR-A and IR-B” value is “no difference”; the 50% inhibitory concentration (IC50) was 1.02 ± 0.03 nM; the “IR-A binding, less active than human insulin” value was 40–50%. For the same substance, the “insulin receptor binding relative to human insulin” value in the data set with insulin receptor (setting [5]) is recorded as 78%. Further, the “plasma levels of metabolites” value in data set [2] is reported as “significant plasma levels”. In addition, the concentration giving a half-maximal response (EC50) in the data set on human IR-A [3] was found to be 18.6 ± 2.5 nM. Also, the 50% effective concentration (EC50) in the data set on human IGF1R (listed as M1) was more than 400 nM. In addition, in the data set on human IGF1R, the EC50 was found to be 644 ± 56.9 nM.

“[Gly^A21,Arg^B31,Arg^B32]insulin [Glargine]”: in the data set with human IR-A [1], the “difference in affinity between IR-A and IR-B” value is given as “no difference”; the IC50 is 0.83 ± 0.08 nM; the “IR-A binding, less active than human insulin” value is given as 40–50%. Moreover, the “difference between human insulin and insulin glargine” value in the data set on MCF10 is recorded as “did not show any difference”. The dissociation rate result in the data set on insulin receptor (relative to human insulin, ref [12], [51]) is on record as “dissociation rate similar to that of human insulin”. In the data set on insulin receptor (setting [5]), the “insulin receptor binding relative to human insulin” value is 86%. The EC50 with human IR-A [3] came to 18.4 ± 2.4 nM. In addition, the “decrease in IR-A autophosphorylation activity” value with human IR-A [3] (relative to human insulin) was 30–50%. In addition, in the data set on human IGF1R, the EC50 was 87.5 ± 10 nM, the “less potent relative to IGF-1 (IGF1R autophosphorylation)” value was approximately 30 times and the “more potent in stimulation” value is “about 5 fold”. Also, the isoelectric point in data set [4] was 6.7 pH. Moreover, the solubility result in data set [4] (physiological pH) is given as “low solubility at physiological pH”.

For “IGF-1: IGF-1 obtained from R&D Systems and Cell Sciences”, in the data set with human IR-A [1], the “higher affinity for IR-A than IR-B” value stood at 2.7 fold. Moreover, the “IR-A affinity less potent than human insulin” value in the data set with human IR-A [1] (IR-A, relative to human insulin) is reported as “approximately 130 fold”. In addition, the IC50 on human IR-A [1] amounted to 64.5 ± 5.1 nM. Also, the EC50 in the data set with human IR-A [3] was found to be 449 ± 61.7 nM; with human IGF1R it was 2.9 ± 0.4 nM.
